Measurements as given in patent publication US8993624B2, “Method of preventing and treating inflammatory diseases and disorders with abscisic acid” (Virginia Tech Intellectual Properties, Inc., priority 2010, dated 2015).

Tested on: PPAR γ
Type: cell-based

With `CC1=CC(=O)CC(C)(C)C1(O)/C=C/C(C)=C\C(=O)O` (single isomer, unassigned; (-)) [(−) ABA] as the molecule, how does the “concentration inducing maximal PPAR γ activation” value (1.25-10 μM tested, 20 hours) read?
Its value is 2.5 µM.

What about the “PPAR γ activation (relative luciferase activity)” value (RAW 264.7, 20 hours) of the same molecule?
The value was “activated PPAR γ to a similar degree”.
